Entries after “also recorded” stand apart in the source; their conditions may differ.
Experiments:
[1] = tested on: T0 tobacco plants expressing the FMP27 HPPD (FMP27t); experiment: Greenhouse response of T0 tobacco plants to tembotrione; assay type: in vivo, Nicotiana tabacum; details: 100 g AI/ha, two weeks after treatment
Procedure: As an example, rooted plants containing the T-DNA PromCaMV35S-OTP-HIS6-FMP27t-TerCaMV35S, were transferred to the greenhouse under standard growth conditions. Following a period of acclimation of two weeks, the T0 plants were treated with a mixture containing 100 g tembotrione/ha prepared from a WP20 (wettable powder 20%) formulation supplemented with ammonium sulfate and methyl ester raps oil. Two weeks after the treatment, the symptoms due to the application of the herbicides were evaluated. The plants were classified in four categories. The treated plants evaluated as “0” are looking like the untreated tobacco plants. The plants evaluated as “1” display temporarily light bleaching phenotype due to the application of the herbicides. The plants evaluated as “2” display permanent light to strong bleaching symptoms. Finally the plants evaluated as “3” are looking like wild type tobacco plants submitted to the same treatment.

[2] = tested on: rice shoots containing AtHPPD; experiment: Bleaching of rice shoots on MS/2 with tembotrione; assay type: cell-based; details: 2 weeks
Procedure: (§1) Rice transformation is achieved using methods well known in the art. Briefly, the Agrobacterium tumefaciens mediated transformation of rice was performed using immature embryos, from the restorer line 6G4317. Briefly, panicles from donor plants were harvested 8-12 days after pollination. The lemma of the immature seed was removed. Seeds were thereafter sterilized using a NaOCl based solution and Tween. The seeds were preinduced with […]. Agrobacterium tumefaciens cells are then co-cultivated with the preinduced seeds in presence of acetosyringone for 4 days at 24° C. in the dark. Thereafter, coleoptile from embryos are removed and washed, then put on a media supplemented with phosphinothricin for 3 weeks at 28° C. under a photoperiod rhythm of 16 hours. Then the growing calli were cut off from the embryos, and transferred to fresh media containing triacillin, phosphinothricin, L-proline and copper (II) sulfate.
(§2) For each callus-line and per Tembotrione concentration, 3 shoots, and randomly isolated from different callus pieces, were transferred to MS/2 with Tembotrione. As a general rule, transfer of the shoots from regeneration medium to MS/2 occurred 9 weeks after calli had been put on regeneration medium.
(§3) Cultures were incubated at 26.5° C. (16 hrs. photoperiod) and evaluation of symptoms occurred 2 weeks later.
(§4) New developing leaves of the shoots transferred have been scored on the basis of bleaching and categorized in 3 groups:
(§5) a) no bleaching b) intermediate bleaching c) complete bleaching
(§6) Within the category Intermediate bleaching′ a distinction has been made between shoots having new leaves showing only very little bleaching symptoms and thus tending to green leaves, and shoots with new leaves almost completely bleached.

[3] = tested on: rice shoots containing FMP27e; experiment: Bleaching of rice shoots on MS/2 with tembotrione; assay type: cell-based; details: 2 weeks
Procedure: as §1, §2, §3, §4, §5, §6

[4] = tested on: T0 rice plants containing AtHPPD; experiment: Rice glasshouse response to tembotrione, injury classes; assay type: in vivo; details: 100 g AI/ha, 7 DAT
Procedure: (§7) T0 rooted plantlets (either selected on phosphinothricin alone or on phosphinothricin supplemented with tembotrione) were transferred to soil in the glasshouse. Following an acclimation period, sufficiently grown plants were treated with the different HPPD inhibitor herbicides. As an example, T0 plants were sprayed with tembotrione of formulation type WP20 (100 g AI/ha) supplemented with ammonium sulfate and methyl ester raps oil. Seven days after the spray application, the symptoms due to the application of the herbicide were evaluated and compared the symptoms observed on wild type plants submitted to the same treatment.
(§8) The plants were classified in three categories based on the phenotype developed in response to the herbicide seven days after the treatment.

[5] = tested on: T0 rice plants containing FMP27e; experiment: as above; assay type: in vivo; details: 100 g AI/ha, 7 DAT
Procedure: as §7, §8

[6] = tested on: wild type rice plants; experiment: as above; assay type: in vivo; details: 100 g AI/ha, 7 DAT; no transgene
Procedure: as §7, §8

[7] = tested on: soybean events expressing the FMP27 HPPD protein; experiment: Soybean greenhouse response to tembotrione; assay type: in vivo; details: 100 g AI/ha, ten days after application; eight events
Procedure: Plants containing the transgene were then sprayed with HPPD inhibitor herbicides, as for example with tembotrione at a rate of 100 g AI/ha. Ten days after the application the symptoms due to the application of the herbicide were evaluated and compared to the symptoms observed on wild type plants under the same conditions. Eight events expressing the FMP27 HPPD protein have been generated from the green shoots of above and were transferred to the greenhouse. Four weeks after acclimation, i.e. plants at a developmental stage of 3-4 internodes were treated with 100 g AI/ha tembotrione prepared from a WP 20 formulation supplemented with ammonium sulfate and methyl ester raps oil. Ten days after application, the symptoms caused by the application of the HPPD inhibitor herbicide were evaluated and compared to the symptoms observed on treated non-transgenic wild-type soybean plants.

CS(=O)(=O)c1ccc(C(=O)C2C(=O)CCCC2=O)c(Cl)c1COCC(F)(F)F [Tembotrione, 2-[2-chloro-4-(methylsulfonyl)-3-[(2,2,2,-tri-fluoroethoxy)methyl]benzoyl]-1,3-cyclo-hexanedione] was tested, and the “number of plants in category 0 (looking like the untreated tobacco plants)” value [1] was 11, the “number of plants in category 1 (temporarily light bleaching)” value [1] was 4 and the “number of plants in category 2 (permanent light to strong bleaching)” value [1] was 10. The “number of plants in category 3 (like wild type plants submitted to the same treatment)” value [1] was 4, the “N^o of shoots completely bleached” value ([2]; 1 μM) was 12 and the “N^o of shoots with intermediate bleaching” value ([2]; 1 μM) was 19. For the same molecule, the “N^o of shoots without bleaching” value ([2]; 1 μM) was 27, the “N^o of shoots completely bleached” value ([2]; 5 μM) was 58 and the “N^o of shoots with intermediate bleaching” value ([2]; 5 μM) was 2. For the same molecule, the “N^o of shoots without bleaching” value ([2]; 5 μM) was 0, the “N^o of shoots completely bleached” value ([3]; 1 μM) was 10 and the “N^o of shoots with intermediate bleaching” value ([3]; 1 μM) was 19. For the same molecule, the “N^o of shoots without bleaching” value ([3]; 1 μM) was 28, the “N^o of shoots completely bleached” value ([3]; 5 μM) was 36 and the “N^o of shoots with intermediate bleaching” value ([3]; 5 μM) was 21. For the same molecule, the “N^o of shoots without bleaching” value ([3]; 5 μM) was 0, the “Class I, number of plants (no injuries)” value [4] was 1 and the “Class II, number of plants (injury: 10-40%)” value (shortened to “Class II … (injury: 10-40%)”) [4] was 13. For the same molecule, the “Class III, number of plants (injury: 41-100%)” value (“Class III … (injury: 41-100%)” for short) [4] was 9, the “Class I, number of plants (no injuries)” value [5] was 2 and the “Class II … (injury: 10-40%)” value [5] was 17. The “Class III … (injury: 41-100%)” value [5] was 4, the “Class I, number of plants (no injuries)” value [6] was 0 and the “Class II … (injury: 10-40%)” value [6] was 0. The “Class III … (injury: 41-100%)” value [6] was 20 and the “bleaching symptoms of events” value [7] was “Two of the eight events didn't show any bleaching phenotype; also recorded: One event showed transitory light bleaching symptoms but recovered 14 days after tembotrione application; also recorded: remaining five events exhibited the bleaching like non-transgenic wild-type soybean plant”.
